Measurements from US9018392B1, “Compounds, compositions and methods for crop enhancement” (Active AgriProducts Inc., priority 2014, dated 2015).

What was measured:
Format in all cases: in vivo
canola [1] = assay: Experiment 10 canola yield, field test conditions, first site; settings: 20 ppm and 40 ppm seed treatment, crop maturation (approximately 90 days)
Description: (§1) For the Experiments described below, application of 1,2-dimethyl-4-dimethylaminomethyl-5-hydroxy benzimidazole (referred to herein as INTRINSIC™) was by way of seed treatment. Treated seeds were prepared by mixing 1.0 kg of seed and 2.0 mL of an aqueous solution of INTRINSIC™ comprising 0.1% potassium hydroxide in a ZIPLOC™ bag. Control seeds were prepared by mixing 1.0 kg of seed and 2.0 mL of aqueous 0.1% potassium hydroxide solution in a ZIPLOC™ bag. The seeds and solutions were sufficiently mixed to wet the seeds. The seeds were dried after being wetted. […] Experiments 10 and 11 tested the effects of 20 ppm and 40 ppm INTRINSIC™ on canola yield under field test conditions. FIGS. 10(a) and 10(b) display yield results at crop maturation (approximately 90 days) at a first site, showing greater yield crops from treated seeds compared to crops from control seeds. FIGS. 11(a) and 11(b) display yield results at crop maturation (approximately 90 days) at a second site, again showing greater yield crops from treated seeds compared to crops from control seeds.

canola [2] = assay: Experiment 8 canola growth, field test conditions, second site; settings: 10 days
Description: (§2) For the Experiments described below, application of 1,2-dimethyl-4-dimethylaminomethyl-5-hydroxy benzimidazole (referred to herein as INTRINSIC™) was by way of seed treatment. Treated seeds were prepared by mixing 1.0 kg of seed and 2.0 mL of an aqueous solution of INTRINSIC™ comprising 0.1% potassium hydroxide in a ZIPLOC™ bag. Control seeds were prepared by mixing 1.0 kg of seed and 2.0 mL of aqueous 0.1% potassium hydroxide solution in a ZIPLOC™ bag. The seeds and solutions were sufficiently mixed to wet the seeds. The seeds were dried after being wetted. […] Experiments 7 and 8 tested the effects of 20 ppm and 40 ppm INTRINSIC™, on canola growth under field test conditions.

soy bean = assay: Experiment 12 soy bean yield, field test conditions; settings: 20 ppm and 40 ppm seed treatment; crop maturation (approximately 90 days)
Description: as §1, with “Experiment 12” for “Experiments 10 and 11”, “soy bean” for “canola”, “12(a)” for “10(a)”, “12(b)” for “10(b)”, “days),” for “days) at a first site,”, “seeds.” for “seeds. FIGS. 11(a) and 11(b) display yield results at crop maturation (approximately 90 days) at a second site, again showing greater yield crops from treated seeds compared to crops from control seeds.”

wheat [3] = assay: Experiment 2(b) wheat root growth, greenhouse conditions; settings: 40 ppm seed treatment, 10 days, FIG. 2(b)
Description: as §2, with “Experiment 2(a)” for “Experiments 7 and 8”, “INTRINSIC™” for “INTRINSIC™,”, “wheat root” for “canola”, “laboratory” for “field test”, “conditions. Treated and control seeds were grown in seedling trays lined with moistened tissue. Experiment 2(b) tested the effects of 40 ppm INTRINSIC™ on wheat root growth under greenhouse conditions. Experiment 2(c) tested the effects of 40 ppm INTRINSIC™ on wheat root growth under laboratory conditions. Treated and control seeds were grown in agar culture medium. Results at 8 days are shown Figure in FIG. 2(c).” for “conditions.”

wheat [4] = assay: Experiment 6 wheat growth, field test conditions; settings: 20 ppm and 40 ppm, alone and combined with CRUISER MAXX™ and DIVIDEND™, 10 days
Description: as §2, with “INTRINSICTM)” for “INTRINSIC™)”, “INTRINSICTM” for “INTRINSIC™”, “ZIPLOCTM” for “ZIPLOC™”, “Experiment 6” for “Experiments 7 and 8”, “INTRINSICTM, alone and combined with known seed treatments (CRUISER […] and […], from SyngentaTM Canada Inc., applied per manufacturer's recommendations),” for “INTRINSIC™,”, “wheat” for “canola”

canola [5] = assay: Experiment 11 canola yield, field test conditions, second site; settings: 20 ppm and 40 ppm seed treatment, crop maturation (approximately 90 days)
Description: as §1

canola [6] = assay: Experiment 7 canola growth, field test conditions, first site; settings: 20 ppm and 40 ppm seed treatment, 10 days
Description: as §2

[7] = 20 ppm and 40 ppm seed treatment
[8] = 40 ppm seed treatment, another set of tests

Cc1nc2c(CN(C)C)c(O)ccc2n1C [INTRINSIC™, 1,2-dimethyl-4-dimethylaminomethyl-5-hydroxy benzimidazole]
canola yield compared to crops from control seeds (canola [1]): greater yield
root length compared to control seedlings (canola [2]; [7]): significant increases
root surface area compared to control seedlings (canola [2]; [7]): significant increases
root weight compared to control seedlings (canola [2]; [8]): significant increases
shoot weight compared to control seedlings (canola [2]; [8]): significant increases
soy bean yield compared to crops from control seeds (soy bean): greater yield
number of roots compared to control seedlings (wheat [3]): greater number of roots
root length compared to control seedlings (wheat [3]): longer roots
shoot length compared to control seedlings (wheat [3]): longer shoots
root length compared to control seedlings (wheat [4]): significant increases
root surface area compared to control seedlings (wheat [4]): significant increases
root weight compared to control seedlings (wheat [4]; another set of tests): significant increases
shoot weight compared to control seedlings (wheat [4]; another set of tests): significant increases
canola yield compared to crops from control seeds (canola [5]): greater yield
root length compared to control seedlings (canola [6]): significant increases
root surface area compared to control seedlings (canola [6]): significant increases
root weight compared to control seedlings (canola [6]; another set of tests): significant increases
shoot weight compared to control seedlings (canola [6]; another set of tests): significant increases
